Experimental findings from patent publication US12421210B2, “Fused bicyclic heterocycles as therapeutic agents” (NEW YORK UNIVERSITY, priority 2018, dated 2025) are described below.

For this assay, the target named is human NAMPT enzyme (His-hNAMPT) (Homo sapiens (Human), UniProt P43490). Put plainly: NAMPT enzymatic inhibition assay (fluorescence, NADH product). Format: biochemical. The settings on record: [HDB]; read-out: NAMPT IC50 (μM) [HDB].
human NAMPT enzyme (His-hNAMPT), sequence (P43490 whole entry): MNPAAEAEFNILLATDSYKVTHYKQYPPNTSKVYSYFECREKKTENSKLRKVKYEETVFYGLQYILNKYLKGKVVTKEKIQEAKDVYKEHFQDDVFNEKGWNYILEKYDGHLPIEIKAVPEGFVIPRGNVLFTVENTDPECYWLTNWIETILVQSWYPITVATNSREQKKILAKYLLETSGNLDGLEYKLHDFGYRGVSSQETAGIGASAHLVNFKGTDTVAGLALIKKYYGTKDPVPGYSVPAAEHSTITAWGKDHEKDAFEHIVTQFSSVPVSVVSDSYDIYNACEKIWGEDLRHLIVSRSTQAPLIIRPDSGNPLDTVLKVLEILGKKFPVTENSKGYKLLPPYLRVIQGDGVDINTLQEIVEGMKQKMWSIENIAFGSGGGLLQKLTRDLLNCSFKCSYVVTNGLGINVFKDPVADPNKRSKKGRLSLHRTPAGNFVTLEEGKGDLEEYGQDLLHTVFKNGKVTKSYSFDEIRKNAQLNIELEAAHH

The IC50 is the concentration needed to halve the response being measured. `CC(c1ncccn1)N1C[C@@H]2[C@@H](CCNC(=O)/C=C/c3cccnc3)[C@@H]2C1` (stereo partly drawn) [Example 315, (E)-3-(pyridin-3-yl)-N-(2-((1R,5S,6s)-3-(1-(pyrimidin-2-yl)ethyl)-3-azabicyclo[3.1.0]hexan-6-yl)ethyl)acrylamide]: the IC50 was in the range of 0.01 to 0.49 µM.

For the molecule `O=C(/C=C/c1cccnc1)NCC[C@@H]1[C@H]2CN(Cc3cnc(Cl)nc3)C[C@@H]12` [Example 316], the IC50 was in the range of 0.01 to 0.49 µM.

Take `CNC(=O)C(c1ccccc1)N1C[C@@H]2[C@@H](CCNC(=O)/C=C/c3cccnc3)[C@@H]2C1` (stereo partly drawn) [Example 317, (E)-N-(2-((1R,5S,6s)-3-(2-(methylamino)-2-oxo-1-phenylethyl)-3-azabicyclo[3.1.0]hexan-6-yl)ethyl)-3-(pyridin-3-yl)acrylamide]: the IC50 is less than 0.01 µM. The value for `CCN(CC)C(=O)C(c1ccccc1)N1C[C@@H]2[C@@H](CCNC(=O)/C=C/c3cccnc3)[C@@H]2C1` (stereo partly drawn) [Example 318, (E)-N-(2-((1R,5S,6s)-3-(2-(diethylamino)-2-oxo-1-phenylethyl)-3-azabicyclo[3.1.0]hexan-6-yl)ethyl)-3-(pyridin-3-yl)acrylamide] was less than 0.01 µM; that for `CC(c1ccncc1)N1C[C@@H]2[C@@H](CCNC(=O)/C=C/c3cccnc3)[C@@H]2C1` (stereo partly drawn) [Example 319, (E)-3-(pyridin-3-yl)-N-(2-((1R,5S,6s)-3-(1-(pyridin-4-yl)ethyl)-3-azabicyclo[3.1.0]hexan-6-yl)ethyl)acrylamide] was less than 0.01 µM; that for `CC(c1cccnc1)N1C[C@@H]2[C@@H](CCNC(=O)/C=C/c3cccnc3)[C@@H]2C1` (stereo partly drawn) [Example 320, (E)-3-(pyridin-3-yl)-N-(2-((1R,5S,6s)-3-(1-(pyridin-3-yl)ethyl)-3-azabicyclo[3.1.0]hexan-6-yl)ethyl)acrylamide] was less than 0.01 µM.

With `CC(c1ccccn1)N1C[C@@H]2[C@@H](CCNC(=O)/C=C/c3cccnc3)[C@@H]2C1` (stereo partly drawn) [Example 321, (E)-N-(2-((1R,5S,6s)-3-(1-(pyridin-2-yl)ethyl)-3-azabicyclo[3.1.0]hexan-6-yl)ethyl)-3-(pyridin-3-yl)acrylamide], the IC50 was in the range of 0.01 to 0.49 µM.

Take `CC(c1ccc(F)cc1)N1C[C@@H]2[C@@H](CCNC(=O)/C=C/c3cccnc3)[C@@H]2C1` (stereo partly drawn) [Example 322, (E)-N-(2-((1R,5S,6s)-3-(1-(4-fluorophenyl)ethyl)-3-azabicyclo[3.1.0]hexan-6-yl)ethyl)-3-(pyridin-3-yl)acrylamide]: the half-inhibitory concentration (IC50) is 0.01 to 0.49 µM. As to `CC(c1cccc(F)c1)N1C[C@@H]2[C@@H](CCNC(=O)/C=C/c3cccnc3)[C@@H]2C1` (stereo partly drawn) [Example 323, (E)-N-(2-((1R,5S,6s)-3-(1-(3-fluorophenyl)ethyl)-3-azabicyclo[3.1.0]hexan-6-yl)ethyl)-3-(pyridin-3-yl)acrylamide], the IC50 was less than 0.01 µM.

For the molecule `O=C(/C=C/c1cccnc1)NCC[C@@H]1[C@H]2CN(c3nc(N4CCNCC4)ncc3F)C[C@@H]12` [Example 324, (E)-N-(2-((1R,5S,6s)-3-(5-fluoro-2-(piperazin-1-yl)pyrimidin-4-yl)-3-azabicyclo[3.1.0]hexan-6-yl)ethyl)-3-(pyridin-3-yl)acrylamide], the IC50 was in the range of 0.01 to 0.49 µM.

`CN1CCN(c2ncc(F)c(N3C[C@@H]4[C@@H](CCNC(=O)/C=C/c5cccnc5)[C@@H]4C3)n2)CC1` [Example 325, (E)-N-(2-((1R,5S,6s)-3-(5-fluoro-2-(4-methylpiperazin-1-yl)pyrimidin-4-yl)-3-azabicyclo[3.1.0]hexan-6-yl)ethyl)-3-(pyridin-3-yl)acrylamide]: the half-maximal inhibitory concentration (IC50) is less than 0.01 µM. For `O=C(/C=C/c1cccnc1)NCC[C@@H]1[C@H]2CN(c3nc(N4CCC(O)C4)ncc3F)C[C@@H]12` (stereo partly drawn) [Example 326, (E)-N-(2-((1R,5S,6s)-3-(5-fluoro-2-(3-hydroxypyrrolidin-1-yl)pyrimidin-4-yl)-3-azabicyclo[3.1.0]hexan-6-yl)ethyl)-3-(pyridin-3-yl)acrylamide], the IC50 was less than 0.01 µM. As for `CNc1ncc(F)c(N2C[C@@H]3[C@@H](CCNC(=O)/C=C/c4cccnc4)[C@@H]3C2)n1` [Example 327, (E)-N-(2-((1R,5S,6s)-3-(5-fluoro-2-(methylamino)pyrimidin-4-yl)-3-azabicyclo[3.1.0]hexan-6-yl)ethyl)-3-(pyridin-3-yl)acrylamide], the figure is less than 0.01 µM; as for `CNC(=O)COc1ncc(F)c(N2C[C@@H]3[C@@H](CCNC(=O)/C=C/c4cccnc4)[C@@H]3C2)n1` [Example 328, (E)-N-(2-((1R,5S,6s)-3-(5-fluoro-2-(2-(methylamino)-2-oxoethoxy)pyrimidin-4-yl)-3-azabicyclo[3.1.0]hexan-6-yl)ethyl)-3-(pyridin-3-yl)acrylamide], 0.01 to 0.49 µM. As for `CCN(CC)C(=O)COc1ncc(F)c(N2C[C@@H]3[C@@H](CCNC(=O)/C=C/c4cccnc4)[C@@H]3C2)n1` [Example 329, (E)-N-(2-((1R,5S,6s)-3-(2-(2-(diethylamino)-2-oxoethoxy)-5-fluoropyrimidin-4-yl)-3-azabicyclo[3.1.0]hexan-6-yl)ethyl)-3-(pyridin-3-yl)acrylamide], the figure is 0.01 to 0.49 µM; as for `COc1ncc(F)c(N2C[C@@H]3[C@@H](CCNC(=O)/C=C/c4cncc(F)c4)[C@@H]3C2)n1` [Example 330, (E)-N-(2-((1R,5S,6s)-3-(5-fluoro-2-methoxypyrimidin-4-yl)-3-azabicyclo[3.1.0]hexan-6-yl)ethyl)-3-(5-fluoropyridin-3-yl)acrylamide], 0.01 to 0.49 µM.

`O=C(/C=C/c1cccnc1)NCC[C@@H]1[C@H]2CN(c3nc(OCCN4CCOCC4)ncc3F)C[C@@H]12` [Example 331, (E)-N-(2-((1R,5S,6s)-3-(5-fluoro-2-(2-morpholinoethoxy)pyrimidin-4-yl)-3-azabicyclo[3.1.0]hexan-6-yl)ethyl)-3-(pyridin-3-yl)acrylamide]: the IC50 is less than 0.01 µM.

Regarding `COc1ncc(F)c(N2C[C@@H]3[C@@H](CCNC(=O)/C=C/c4cnccc4F)[C@@H]3C2)n1` [Example 332, (E)-N-(2-((1R,5S,6s)-3-(5-fluoro-2-methoxypyrimidin-4-yl)-3-azabicyclo[3.1.0]hexan-6-yl)ethyl)-3-(4-fluoropyridin-3-yl)acrylamide], the IC50 is less than 0.01 µM. As for `O=C(/C=C/c1cccnc1)NCC[C@@H]1[C@H]2CN(c3nc(N4CCNC(=O)C4)ncc3F)C[C@@H]12` [Example 333, (E)-N-(2-((1R,5S,6s)-3-(5-fluoro-2-(3-oxopiperazin-1-yl)pyrimidin-4-yl)-3-azabicyclo[3.1.0]hexan-6-yl)ethyl)-3-(pyridin-3-yl)acrylamide], the figure is less than 0.01 µM.

Consider `Cc1nc2cccc(N3C[C@@H]4[C@@H](CCNC(=O)/C=C/c5cccnc5)[C@@H]4C3)c2o1` [Example 334, (E)-N-(2-((1R,5S,6s)-3-(2-methylbenzo[d]oxazol-7-yl)-3-azabicyclo[3.1.0]hexan-6-yl)ethyl)-3-(pyridin-3-yl)acrylamide], for which the IC50 was less than 0.01 µM.

Consider `O=C(/C=C/c1cccnc1)NCC[C@@H]1[C@H]2CN(C(c3ccccc3)C3CCOCC3)C[C@@H]12` (stereo partly drawn) [Example 335, (E)-N-(2-((1R,5S,6s)-3-(phenyl(tetrahydro-2H-pyran-4-yl)methyl)-3-azabicyclo[3.1.0]hexan-6-yl)ethyl)-3-(pyridin-3-yl)acrylamide], for which the IC50 fell in the range of 0.01 to 0.49 µM. Regarding `O=C(/C=C/c1cccnc1)NCC[C@@H]1[C@H]2CN(c3nc(-c4ncco4)ncc3F)C[C@@H]12` [Example 336, (E)-N-(2-((1R,5S,6s)-3-(5-fluoro-2-(oxazol-2-yl)pyrimidin-4-yl)-3-azabicyclo[3.1.0]hexan-6-yl)ethyl)-3-(pyridin-3-yl)acrylamide], the IC50 was less than 0.01 µM. With `O=C(/C=C/c1cccnc1)NCC[C@@H]1[C@H]2CN(c3cccc4[nH]ncc34)C[C@@H]12` [Example 337, (E)-N-(2-((1R,5S,6s)-3-(1H-indazol-4-yl)-3-azabicyclo[3.1.0]hexan-6-yl)ethyl)-3-(pyridin-3-yl)acrylamide], the half-maximal inhibitory concentration (IC50) lay in the range of 0.01 to 0.49 µM. As to `CCOP(=O)(OCC)c1cccc(N2C[C@@H]3[C@@H](CCNC(=O)/C=C/c4cccnc4)[C@@H]3C2)c1` [Example 338, diethyl (3-((1R,5S,6s)-6-(2-((E)-3-(pyridin-3-yl)acrylamido)ethyl)-3-azabicyclo[3.1.0]hexan-3-yl)phenyl)phosphonate], the IC50 was in the range of 0.01 to 0.49 µM. Turning to `COc1cc(N2C[C@@H]3[C@@H](CCNC(=O)/C=C/c4ccc(N)nc4)[C@@H]3C2)ccn1` [Example 339, (E)-3-(6-aminopyridin-3-yl)-N-(2-((1R,5S,6s)-3-(2-methoxypyridin-4-yl)-3-azabicyclo[3.1.0]hexan-6-yl)ethyl)acrylamide], the IC50 was 0.01 to 0.49 µM. Consider `CC(c1ccc(F)cc1)N1C[C@@H]2[C@@H](CCNC(=O)/C=C/c3ccc(N)nc3)[C@@H]2C1` (stereo partly drawn) [Example 340, (E)-3-(6-aminopyridin-3-yl)-N-(2-((1R,5S,6s)-3-(1-(4-fluorophenyl)ethyl)-3-azabicyclo[3.1.0]hexan-6-yl)ethyl)acrylamide], for which the IC50 was in the range of 0.01 to 0.49 µM.

Turning to `Nc1ccc(/C=C/C(=O)NCC[C@@H]2[C@H]3CN(c4ccc(F)cc4)C[C@@H]23)cn1` [Example 341, (E)-3-(6-aminopyridin-3-yl)-N-(2-((1R,5S,6s)-3-(4-fluorophenyl)-3-azabicyclo[3.1.0]hexan-6-yl)ethyl)acrylamide], the IC50 is 0.01 to 0.49 µM. Take `Cc1nc2nccc(N3C[C@@H]4[C@@H](CCNC(=O)/C=C/c5cccnc5)[C@@H]4C3)c2o1` [Example 342, (E)-N-(2-((1R,5S,6s)-3-(2-methyloxazolo[4,5-b]pyridin-7-yl)-3-azabicyclo[3.1.0]hexan-6-yl)ethyl)-3-(pyridin-3-yl)acrylamide]: the IC50 was 0.01 to 0.49 µM.
